According to ChEMBL document CHEMBL1201862, “PubChem BioAssay data set” (2004):
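Briefly, cells in 96-well plates were exposed to five compound concentrations for 48 h, and endpoints were estimated by linear interpolation. GI50 is the concentration that inhibits growth by half.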 Calls of active or inactive are those of the source. Cut-off read from the data, not from the text of the source: active = GI50 up to about 1.1 µM and inactive = higher.

Legend:
Test in all cases: growth of human tumour cells (NCI), 48 h
DLD-1 = test system: DLD-1
DMS-114 = test system: DMS-114
DMS-273 = test system: DMS-273
HOP-18 = test system: HOP-18
KM-20L2 = test system: KM-20L2
LXFL 529 = test system: LXFL 529
RXF 631 = test system: RXF 631
SNB-78 = test system: SNB-78
XF498 = test system: XF498

Measured: GI50

COC(=O)Cc1nc2ccccc2o1
inactive: DLD-1 45.1 µM | DMS-114 36.1 µM | DMS-273 36.4 µM | HOP-18 > 100 µM | KM-20L2 20.5 µM | LXFL 529 49.3 µM | RXF 631 > 100 µM | SNB-78 > 100 µM | XF498 59 µM
